Measurements taken from paper PMC5807445, “A printable hydrogel microarray for drug screening avoids false positives associated with promiscuous aggregating inhibitors” (Nature Communications, 2018).

Columns and labels:
[1] = molecular target: T1, TEM-1 β-lac (Escherichia coli, UniProt P62593); assay: Printed hydrogel-based β-lac assay (nitrocefin, colorimetric image analysis); assay type: biochemical; settings: promiscuous aggregating inhibitors; starting concentration 100 μM
Procedure: Inhibitor solutions and nitrocefin (a colorimetric β-lac substrate) were subsequently deposited on the microzones at different concentrations using a high-throughput dispensing robot. The resulting colorimetric read-out of β-lac activity was quantified via image analysis.
POH ink solution was prepared with a final concentration of 50 nM β-lac and used to print hydrogel spots on a 96-well paper microzone plate as described previously. […] The inhibitor was incubated with the printed β-lac for 20 min, after which the assay was initiated with the addition of 5 μl of nitrocefin (500 μM) to each microzone. […] Images were taken with a Canon DSLR camera (operated in manual focus mode without flash) after 25 min. The wax-printed background was filtered out using GIMP software (Version 2.8.16). Image analysis was performed using Fiji, with the converted substrate color extracted using the Color Deconvolution plugin. Extracted images were inverted and converted to 8 bit grayscale images. The intensity of each sample was measured and presented as a ratio of the control image (i.e., a microzone not treated with inhibitor). Calculation of IC50 values was carried out in OriginPro by plotting the calculated percentage inhibition against the added inhibitor concentration. Curve fitting was performed with the dose–response function (OriginLab Corporation, Northampton, MA, USA).

[2] = molecular target: T1, TEM-1 β-lac; assay: Solution-based β-lac assay (nitrocefin hydrolysis, absorbance at 492 nm); assay type: biochemical; settings: promiscuous aggregating inhibitors; diluted from 10 mM DMSO stocks
[3] = Promiscuous aggregating inhibitor size measurement by dynamic light scattering (DLS); assay type: physicochemical; settings: 100 μM solutions; for Aggregate size (Z-average diameter, DLS) / Polydispersity (DLS): 23°C
Procedure: Promiscuous aggregating inhibitor size measurement
Dynamic light scattering measurements were performed using a Zetasizer Nano ZS instrument (Malvern). The intensity of backscattered light was measured at a 173° angle. Data collection and analysis were performed using the Dispersion Technology Software (version 6.0) from Malvern. Samples of Rottlerin, BIS IX and TIPT at 100 μM concentrations were analyzed in a plastic cuvette with a 10 mm path length. Prior to measurement, samples were equilibrated for 120 s at 23°C. For each sample, 10 runs were performed with three repetitions. The intensity size distribution, Z-average diameter and polydispersity index was collected for each sample. Note that no significant signal was acquired from DLS measurements on the true inhibitors, confirming their solution state.

[4] = molecular target: β-lactamase; settings: reported literature values; cited from earlier work

T1 sequence (P62593 24-286 limits assumed): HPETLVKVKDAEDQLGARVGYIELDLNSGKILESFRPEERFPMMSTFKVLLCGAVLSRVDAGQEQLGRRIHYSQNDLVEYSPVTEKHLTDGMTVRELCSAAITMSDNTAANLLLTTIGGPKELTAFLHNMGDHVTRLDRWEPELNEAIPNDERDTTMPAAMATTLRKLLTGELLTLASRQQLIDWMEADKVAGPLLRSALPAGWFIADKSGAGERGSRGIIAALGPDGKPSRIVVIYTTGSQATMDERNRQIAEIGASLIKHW

SMILES | Specific inhibition of β-lac in the hydrogel-based assay [1] | Inhibition of β-lac in the solution-based assay (false-positive hit) [2] | Particle size range of aggregates (DLS intensity distribution) [3] | Aggregate size (Z-average diameter, DLS) [3] [nm] | Polydispersity (DLS) [3] | IC50 [4] [µM]
O=C1OC(c2cc(I)c(O)c(I)c2)(c2c(I)cc(O)cc2I)c2ccccc21 (centres unmarked) [TIPT, tetraiodophenolphthalein] | no specific inhibition | inhibited | 50-800 nm | 154 ± 1 | 0.16 ± 0.02 | –
[H]/N=C(/N)SCCCn1cc(C2=C(c3cn(C)c4ccccc34)C(=O)NC2=O)c2ccccc21 [BIS IX, bisindolylmaleimide IX] | no specific inhibition | inhibited | 50-800 nm | 365 ± 9 | 0.36 ± 0.02 | –
CC(=O)c1c(O)c(C)c(O)c(Cc2c(O)c3c(c(C(=O)/C=C/c4ccccc4)c2O)OC(C)(C)C=C3)c1O [Rottlerin, rottlerin] | no specific inhibition | inhibited | 50-800 nm | 188 ± 1 | 0.24 ± 0.01 | –
CC1(C)[C@H](C(=O)O)N2C(=O)C[C@H]2S1(=O)=O [Sulbactam, sulbactam] | – | – | – | – | – | 6.1
C[C@]1(Cn2ccnn2)[C@H](C(=O)O)N2C(=O)C[C@H]2S1(=O)=O [Tazobactam, tazobactam] | – | – | – | – | – | 0.04
